Experimental data from ChEMBL document CHEMBL1955866, “New cyclic peptides with osteoblastic proliferative activity from Dianthus superbus” (Bioorg Med Chem Lett, 2012).
Where a SMILES comes first, the peptide text is derived from it.

Key:
Assay type in all cases: functional, cell-based
[1] = Osteoblastic proliferative activity in […] MC3T3-E1 cells at 10^-2 mM by MTT assay
[2] = Osteoblastic proliferative activity in […] MC3T3-E1 cells at 10^-3 mM by MTT assay
[3] = Osteoblastic proliferative activity in rat MC3T3-E1 cells at 10^-4 mM by MTT assay
[4] = Osteoblastic proliferative activity in […] MC3T3-E1 cells at 10^-5 mM by MTT assay
[5] = Osteoblastic proliferative activity in […] MC3T3-E1 cells at 10^-6 mM by MTT assay

SMILES	Activity [1] [%]	Activity [2] [%]	Activity [3] [%]	Activity [4] [%]	Activity [5] [%]
[F-].[Na+]	46.2				
CC(C)C[C@@H]1NC(=O)[C@H]([C@@H](C)O)NC(=O)[C@H](CC(C)C)NC(=O)[C@@H]2CCCN2C(=O)CNC(=O)[C@H](Cc2ccccc2)NC1=O (cyclo(FGPLTL))	13.7	3.9	21.7	38.2	25.4
CC[C@H](C)[C@@H]1NC(=O)[C@H]([C@@H](C)O)NC(=O)[C@H](C(C)C)NC(=O)[C@@H]2CCCN2C(=O)CNC(=O)[C@H](Cc2ccccc2)NC1=O (cyclo(FGPVTI))	22.5	17	26.3	33.9	17.2
